From patent US10765754B2, “Compositions and methods related to inhibition of respiratory syncytial virus entry” (priority 2015, dated 2020)
Read-outs that look alike come from different tables or passages of the source. Starred links: 1 amine or outer side, 2 acyl side, 3 side chain; linkers in the order of their positions; H or OH if unused. Positions of bridges follow the written chain, without caps; N, C: chain ends. Non-standard residues stand in square brackets, D forms with d. Residues, ends and D or L forms follow the SMILES beside them. Chains are numbered I, II in the order given. No end group written: not given here. X1 = NCCOCCOCCOCCOCCOCCOCCOCCOCCOCCOCCOCCOCCOCCOCCOCCOCCOCCOCCOCCOCCOCCOCCOCCOCCOCCOCCOCCOCCC(=O)NC(CCC(=O)[*:1])(CCC(=O)[*:2])CCC(=O)[*:3]; X2 = CC(COCCC(=O)[*:1])(COCCC(=O)[*:2])COCCC(=O)[*:3]; PEG6 = NCCOCCOCCOCCOCCOCCOCCC(=O)O

Key:
RSV-A F protein = biological target: T1, RSV-A F protein (Human respiratory syncytial virus A, UniProt P03420); test: cell-based
T1 construct: expressed in transfected cells; host or cells: 293 T cells
T1 sequence (P03420 137-574): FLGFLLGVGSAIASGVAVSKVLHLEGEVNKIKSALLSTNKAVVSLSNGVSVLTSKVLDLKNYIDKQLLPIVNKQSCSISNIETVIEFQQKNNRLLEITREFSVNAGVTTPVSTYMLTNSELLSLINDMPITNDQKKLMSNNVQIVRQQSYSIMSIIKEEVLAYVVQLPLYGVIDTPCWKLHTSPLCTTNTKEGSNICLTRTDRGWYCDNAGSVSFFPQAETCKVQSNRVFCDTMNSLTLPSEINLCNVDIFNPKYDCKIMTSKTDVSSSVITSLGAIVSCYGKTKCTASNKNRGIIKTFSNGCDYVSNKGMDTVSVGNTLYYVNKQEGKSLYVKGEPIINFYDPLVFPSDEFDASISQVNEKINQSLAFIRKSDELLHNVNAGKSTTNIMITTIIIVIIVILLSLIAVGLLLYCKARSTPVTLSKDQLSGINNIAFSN
T1 sequence (P03420 26-109): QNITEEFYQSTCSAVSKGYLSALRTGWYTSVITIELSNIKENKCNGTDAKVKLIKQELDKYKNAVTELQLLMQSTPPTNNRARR
Experimental: The RSV Syncytia reduction assay was used to evaluate D-peptide inhibitors of RSV entry (IC50). In brief, 293 T cell were plated in a 96-well plate and a 6-well plate. The cells in the 96-well plate were co-transfected with DNA encoding the RSV F protein (or RSV G protein as a negative control) and DNA encoding firefly luciferase downstream of multiple GAL4 binding sites (CheckMate Mammalian Two-Hybrid system, Promega). These cells were designated the effector cells. The cells in the 6-well plate were transfected with GAL4:Id and VP16:MyoD fusion constructs, which interact and drive gene expression in the presence of GAL4 binding sites. These cells were the target cells. At 24 hours post-transfection, the media is removed from the effector cells and D-peptide inhibitors at 2× concentration (diluted in fresh media) were added. Also at 24 hours post-transfection, the target cells are washed with PBS, gently dissociated from the 6-well plate using Versene (0.48 mM EDTA in PBS), and overlaid (at equal volume) onto the effector cells containing 2× inhibitor. At 48 h post-transfection, the cells are lysed using Glo Lysis Buffer (Promega). Bright Glo luciferase assay substrate is added and luminescent signal from expressed luciferase is measured. Luciferase is only expressed in effector cells that fuse (form syncytia) with target cells.

RSV-A/IZN45 = biological target: T2, RSV-A/IZN45 (Human respiratory syncytial virus A, UniProt P03420); test: SPR binding to RSV-A IZN45 N-trimer mimic
T2 construct: N-trimer Mimics Synthesized; made in house; host or cells: chemical peptide synthesis
Description: (§1) IZN45 N-trimer mimic comprises the IZ domain, a highly soluble, designed coiled-coil that helps solubilize the N-trimer, along with the C-terminal (bottom) 45 residues of the RSV N-trimer. IZN45 encompasses the full ordered portion of the N-trimer except for three N-terminal residues (removed to maintain a continuous heptad repeat with the IZ domain). The interactions between 35-residue RSV C-peptides, T108 and T118 (Lambert et al., 1996, Proc. Natl. Acad. Sci. USA 93:2186-2191), and IZN45 was examined by surface plasmon resonance (SPR). SPR is a gold standard assay to measure the kinetics and affinity of biological interactions. […] The Biotinylated L-form of RSV target IZN45 was captured onto one lane of a NeutrAvidin coated SPR chip. A mutant version of IZN45 containing four mutated residues along the N-trimer groove designed to disrupt binding (IZN45 Full Mut, negative control) was captured onto a separate lane of the NeutrAvidin chip. T118, corresponding to the C-terminal portion of the RSV F ectodomain, which is known to interact with the RSV N-trimer groove, was flowed over the various surfaces. […] The surfaces were regenerated with a detergent (0.1% SDS) after each injection of analyte. Various concentrations of T118 were measured in duplicate or triplicate injections. D-peptide interactions with IZN45 and IZN45-Full Mut surfaces were also measured using this method.
(§2) Peptides from the ‘winning’ phage clones from each library were synthesized as D-peptides. If solubility of the peptides was limited, N- or C-terminal charged residue(s) (e.g., lysine) were attached as necessary as previously described for HIV peptides in Eckert et al., 1999, Cell 99:103-15, incorporated by reference in its entirety. Binding affinity and kinetics of the D-peptide inhibitors to the IZN45 and IZN45 mutants was characterized by SPR (Biacore 3000), using methods as described in Welch et al., 2007, Proc. Natl. Acad. Sci. USA 104:16828-33, incorporated by reference in its entirety.

RSV-B/IZN45 = biological target: T3, RSV-B/IZN45 (Human respiratory syncytial virus B, UniProt O36634); test: biochemical; assay type: binding
T3 construct: N-trimer Mimics Synthesized; made in house; host or cells: chemical peptide synthesis
T3 sequence (O36634 163-207, added parts left off): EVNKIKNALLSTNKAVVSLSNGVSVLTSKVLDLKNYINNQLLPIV
Description: as §1, §2

[1] = Kd, synthesized peptide, RSV-A/IZN45, KD determined by SPR
[2] = (L) inhibitors of RSV, controls for D-peptide studies, assay not stated in Table 6, read-out: IC50
[3] = Kd, subsequent trimer/compound made from peptide, RSV-A/IZN45, SPR
[4] = synthesized peptide, RSV-B/IZN45, KD determined by SPR

## I: Ac-[dK][PEG6][dD][dD]G[dS][dM][dC][dV][dN][dR][dP][dE][dW][dL][dL][dD][dW][dC]G[dT]-NH2 / II: Ac-[dK][PEG6][dD][dD]G[dS][dM][dC][dV][dN][dR][dP][dE][dW][dL][dL][dD][dW][dC]G[dT]-NH2 / III: Ac-[dK][PEG6][dD][dD]G[dS][dM][dC][dV][dN][dR][dP][dE][dW][dL][dL][dD][dW][dC]G[dT]-NH2 (linker I:1-II:1-III:1 via X1; disulfide I:8-I:19, II:8-II:19, III:8-III:19) [Ac-K(PEG6)DDG-RSVP24-trimer]
RSV-A F protein; IC50, subsequent trimer/compound made from peptide, syncytia reduction assay using RSV-A F protein
  IC50: 5500 nM

## I: H-[dR][dW][dF][dE][dL][dP][dE][dP][dD][dW][dW]G[dK][PEG6][dK]G[dK]G-NH2 / II: H-[dR][dW][dF][dE][dL][dP][dE][dP][dD][dW][dW]G[dK][PEG6] / III: H-[dR][dW][dF][dE][dL][dP][dE][dP][dD][dW][dW]G[dK][PEG6] (amide I:15-II:C, I:17-III:C) [RSVP1-GK(PEG6)-Tricasso]
RSV-A/IZN45; [1]
  Kd: ~20 nM

## I: [dK]G[dR][dW][dF][dE][dL][dP][dE][dP][dE][dW][dW]G[PEG6][dK]G[dK]G-NH2 / II: [dK]G[dR][dW][dF][dE][dL][dP][dE][dP][dE][dW][dW]G[PEG6] / III: [dK]G[dR][dW][dF][dE][dL][dP][dE][dP][dE][dW][dW]G[PEG6] (amide I:16-II:C, I:18-III:C) [KG-RSVP7-G(PEG6)-Tricasso]
RSV-A/IZN45; [1]
  Kd: ~20 nM

## I: Ac-YGFDASISQVNEKINQSLAFIRKSDELLHNVNAGKSTG[PEG6]KGKG-NH2 / II: Ac-YGFDASISQVNEKINQSLAFIRKSDELLHNVNAGKSTG[PEG6] / III: Ac-YGFDASISQVNEKINQSLAFIRKSDELLHNVNAGKSTG[PEG6] (amide I:40-II:C, I:42-III:C) [YG-T118-Tricasso]
RSV-A F protein; IC50, (L) inhibitors of RSV, controls for D-peptide studies, assay not stated in Table 6
  IC50: 650 nM

## (biotin-PEG2)GKG-IKKEIEAIKKEQEAIKKKIEALEGEVNKIKSALLSTNKAVVSLSNGVSVLTSKVLDLKNYIDKQLLPIV-NH2 [(Biotin-PEG2)GKG-RSVA IZN48]
RSV-A F protein; [2]
  IC50: 215 nM

## I: Ac-[dK][PEG6]G[dA][dC][dT][dN][dR][dA][dE][dW][dL][dI][dD][dW][dC][dA][dA]-NH2 / II: Ac-[dK][PEG6]G[dA][dC][dT][dN][dR][dA][dE][dW][dL][dI][dD][dW][dC][dA][dA]-NH2 / III: Ac-[dK][PEG6]G[dA][dC][dT][dN][dR][dA][dE][dW][dL][dI][dD][dW][dC][dA][dA]-NH2 (linker I:1-II:1-III:1 via X1; disulfide I:5-I:16, II:5-II:16, III:5-III:16; C-terminus assumed) [Ac-K(PEG6)-RSVP21-trimer]
RSV-B/IZN45; subsequent trimer/compound made from peptide, RSV-B/IZN45, SPR
  Kd: 1.8 nM
RSV-A/IZN45; [3]
  Kd: 0.3 nM

## LEGEVNKIKSALLSTNKAVVSLSNGVSVLTSKVLDLKNYIDKQLLPIVNIKKEIEAIKKEQEAIKKKIEAI-GKG-(Glu-biotinyl-PEG)-NH2 [RSVA N49IZ-GKG(Glu-Biotinyl-PEG)]
RSV-A F protein; [2]
  IC50: 102 nM

## CSCC[C@@H](NC(=O)[C@@H](CO)NC(=O)CNC(=O)[C@@H](CC(=O)O)NC(=O)[C@@H](CC(=O)O)NC(=O)CCOCCOCCOCCOCCOCCOCCNC(=O)[C@@H](CCCCN)NC(C)=O)C(=O)N[C@@H]1CSSC[C@H](C(=O)NCC(=O)N[C@@H](C(N)=O)[C@H](C)O)NC(=O)[C@@H](Cc2c[nH]c3ccccc23)NC(=O)[C@@H](CC(=O)O)NC(=O)[C@@H](CC(C)C)NC(=O)[C@@H](CC(C)C)NC(=O)[C@@H](Cc2c[nH]c3ccccc23)NC(=O)[C@@H](CCC(=O)O)NC(=O)[C@H]2CCCN2C(=O)[C@@H](CCCNC(=N)N)NC(=O)[C@@H](CC(N)=O)NC(=O)[C@@H](C(C)C)NC1=O [Ac-K(PEG6)DDG-RSVP24] (Ac-[dK][PEG6][dD][dD]G[dS][dM][dC][dV][dN][dR][dP][dE][dW][dL][dL][dD][dW][dC]G[dT]-NH2; disulfide 8-19)
RSV-B/IZN45; [4]
  Kd: 1800 nM
RSV-A/IZN45; [1]
  Kd: 2100 nM

## CSCC[C@@H](NC(=O)[C@@H](Cc1c[nH]c2ccccc12)NC(=O)[C@@H](Cc1c[nH]c2ccccc12)NC(=O)[C@@H](Cc1ccc(O)cc1)NC(=O)[C@@H](CCCCN)NC(=O)[C@@H](CC(C)C)NC(=O)[C@@H](CO)NC(C)=O)C(=O)N[C@H](CCC(=O)O)C(=O)N[C@H](CCC(=O)O)C(=O)N[C@H](CC(C)C)C(=O)N1CCC[C@@H]1C(=O)N[C@H](CC(C)C)C(=O)N1CCC[C@@H]1C(=O)N[C@H](CCCCN)C(=O)N[C@H](Cc1c[nH]c2ccccc12)C(=O)N[C@H](Cc1c[nH]c2ccccc12)C(=O)NCC(=O)NCC(N)=O [Ac-X16-18-GG] (Ac-[dS][dL][dK][dY][dW][dW][dM][dE][dE][dL][dP][dL][dP][dK][dW][dW]GG-NH2)
RSV-B/IZN45; [4]
  Kd: 5400 nM

## I: Ac-[dI][dS][dL][dP][dT][dP][dT][dW][dW][dP][dS][dT]GG[PEG6][dK]-NH2 / II: Ac-[dI][dS][dL][dP][dT][dP][dT][dW][dW][dP][dS][dT]GG[PEG6][dK]-NH2 / III: Ac-[dI][dS][dL][dP][dT][dP][dT][dW][dW][dP][dS][dT]GG[PEG6][dK]-NH2 (linker I:16-II:16-III:16 via X2; C-terminus assumed) [Ac-X12-45-GG(PEG6)K-trimer]
RSV-B/IZN45; FIG. 10B, RSV-B version of IZN45
  Kd: 66 nM
RSV-A/IZN45; KD, FIG. 10A, RSV-A version of IZN45
  Kd: 49 nM
RSV-A/IZN45; [3]
  Kd: 53 nM

## CSCC[C@@H](NC(=O)[C@@H](Cc1c[nH]c2ccccc12)NC(=O)[C@@H](Cc1c[nH]c2ccccc12)NC(=O)[C@@H](Cc1ccc(O)cc1)NC(=O)[C@@H](CCCCN)NC(=O)[C@@H](CC(C)C)NC(=O)[C@H](N)CO)C(=O)N[C@H](CCC(=O)O)C(=O)N[C@H](CCC(=O)O)C(=O)N[C@H](CC(C)C)C(=O)N1CCC[C@@H]1C(=O)N[C@H](CC(C)C)C(=O)N1CCC[C@@H]1C(=O)N[C@H](CCCCN)C(=O)N[C@H](Cc1c[nH]c2ccccc12)C(=O)N[C@H](Cc1c[nH]c2ccccc12)C(=O)NCC(=O)NCC(N)=O [X16-18-GG] (H-[dS][dL][dK][dY][dW][dW][dM][dE][dE][dL][dP][dL][dP][dK][dW][dW]GG-NH2)
RSV-B/IZN45; [4]
  Kd: 24000 nM

## I: H-[dK]G[dR][dW][dF][dE][dL][dP][dE][dP][dD][dW][dW]G[PEG6][dK]G[dK]G-NH2 / II: H-[dK]G[dR][dW][dF][dE][dL][dP][dE][dP][dD][dW][dW]G[PEG6] / III: H-[dK]G[dR][dW][dF][dE][dL][dP][dE][dP][dD][dW][dW]G[PEG6] (amide I:16-II:C, I:18-III:C) [KG-RSVP1-G(PEG6)-Tricasso]
RSV-A/IZN45; [1]
  Kd: ~20 nM

## CC[C@@H](C)[C@H]1NC(=O)[C@@H](CCCCN)NC(=O)[C@H](NC(=O)[C@@H](C)NC(=O)CNC(C)=O)CSSC[C@H](C(=O)N[C@H](C)C(=O)N[C@H](C)C(=O)NCC(=O)NCC(N)=O)NC(=O)[C@@H](CC(=O)O)NC(=O)[C@@H](Cc2c[nH]cn2)NC(=O)[C@@H](Cc2c[nH]c3ccccc23)NC(=O)[C@@H](Cc2c[nH]cn2)NC(=O)[C@@H](Cc2ccccc2)NC(=O)[C@@H](CC(C)C)NC(=O)[C@@H](CC(=O)O)NC(=O)[C@@H](Cc2c[nH]cn2)NC1=O [Ac-CX10C-119-GG] (Ac-G[dA][dC][dK][dI][dH][dD][dL][dF][dH][dW][dH][dD][dC][dA][dA]GG-NH2; disulfide 3-14)
RSV-B/IZN45; [4]
  Kd: 30000 nM
